In patent publication US11639350B2, “Heteroaryldihydropyrimidine derivatives and methods of treating hepatitis B infections” (Janssen Pharmaceutica NV, priority 2018, dated 2023):
Read-outs that look alike come from different tables or passages of the source.

Key:
HBV = HBV inhibitory activity: HBV DNA in the culture medium of HepG2.2.15 cells by q-PCR; type: cell-based; conditions: HepG2.2.15 cells, 6 days of compound treatment, HBV DNA in culture medium by q-PCR, highest concentration 10 μM, read-out: EC50
Protocol: (§1) HBV replication inhibition by the compounds of this invention as well as cytotoxicity determination was determined in cells infected or transfected with HBV, or cells with stably integrated HBV, such as HepG2.2.15 cells (Sells et al. 1987). The method used herein is as follows.
(§2) The HepG2.2.15 cells were seeded into 96-well plate in 2% FBS (Fetal bovine serum) culture medium at the density of 40,000 cells/well and 5,000 cells/well for HBV inhibitory activity and cytotoxicity determination, respectively. After seeding, the cell plates were incubated at 37° C., 5% CO2 overnight. The next day, medium containing compounds were added to treat the cells for 6 days with medium refreshed once in the middle of the treatment. Eight dose points with 3 folds dilution of each compound were adopted and the highest concentration of the compounds was 10 μM and 100 μM for HBV inhibitory activity and cytotoxicity determination, respectively.
The HBV DAN change in the cell culture medium induced by the compounds was measured by q-PCR (quantitative polymerase chain reaction) method. The HBV DNA in the culture medium was extracted using QIAamp 96 DNA Blood Kit according to the manual and then quantified by q-PCR using the primers and probe in the table below: […]
(§3) EC50 and CC50 values are calculated by the GraphPad Prism software and are averages where multiple measurements were made. EC50 values for the other exemplified compounds were either not measured or higher than 1 μM.

[1] = Cytotoxicity determination in HepG2.2.15 cells (CCK-8); type: cell-based; conditions: human, 6 days of compound treatment, CCK-8, highest concentration 100 μM
Protocol: as §1, §2
After 6 days of compounds treatment, 20 μl CCK-8 (Cell Counting Kit-8 (Tianjin Biolite company)) reagents were added to each well of cytotoxicity assay plates, the plate was incubated at 37° C., 5% CO2 for 2.5 hours and the absorbance at 450 nm wavelength was measured, at the same time the absorbance at 630 nm wavelength was read as reference.
as §3

[2] = Hepatitis B virus, HepG2.2.15, 144 h

| SMILES | EC50 (HBV; [2]) [nM] | CC50 at 6 days [1] [nM] | EC50 (HBV) [nM] |
| --- | --- | --- | --- |
| COC(=O)C1=C([C@H]2CC[C@H](S(=O)(=O)N3CCCC3)CC2)NC(c2nccs2)=NC1c1ccc(F)c(F)c1Cl (single isomer, unassigned) [Compound 169A, (trans)-Methyl 4-(2-chloro-3,4-difluorophenyl)-6-(4-(pyrrolidin-1-ylsulfonyl)cyclohexyl)-2-(thiazol-2-yl)-1,4-dihydropyrimidine-5-carboxylate] | 56 | > 100000 | – |
| CCOC(=O)C1=C(C2CCN(S(=O)(=O)[C@H]3C[C@H](C(=O)O)C3)CC2)NC(c2nccs2)=NC1c1cccc(F)c1Br (relative stereo) [Compound 339B, (trans)-3-((4-(6-(2-Bromo-3-fluorophenyl)-5-(ethoxycarbonyl)-2-(thiazol-2-yl)-3,6-dihydropyrimidin-4-yl)piperidin-1-yl)sulfonyl)cyclobutanecarboxylic Acid] | 10 | 13400 | – |
| COC(=O)C1=C(C2C3CCC2CN(S(C)(=O)=O)C3)NC(c2nccs2)=NC1c1cccc(F)c1Cl (single isomer, unassigned) [Compound 37B, Methyl 4-(2-chloro-3-fluorophenyl)-6-(3-(methylsulfonyl)-3-azabicyclo[3.2.1]octan-8-yl)-2-(thiazol-2-yl)-1,4-dihydropyrimidine-5-carboxylate] | 129 | 5900 | – |
| COC(=O)C1=C([C@H]2CC[C@@H](NS(C)(=O)=O)CC2)NC(c2ncc(F)cc2F)=NC1c1ccc(F)cc1Cl (mixture of isomers) [Compound 399, (cis)-Methyl 4-(2-chloro-4-fluorophenyl)-2-(3,5-difluoropyridin-2-yl)-6-(4-(methylsulfonamido)cyclohexyl)-1,4-dihydropyrimidine-5-carboxylate] | 33 | 36800 | – |
| COC(=O)C1=C(C2CCN(S(C)(=O)=O)CC2)NC(c2nccs2)=NC1c1ccc(Cl)cc1F (stereo not drawn) [Compound 97B, 4-(4-Chloro-2-fluoro-phenyl)-6-(1-methanesulfonyl-pip-eridin-4-yl)-2-thiazol-2-yl-1,4-dihydro-pyrimidine-5-carboxylic Acid Methyl Ester] | 47 | > 100000 | – |
| COC[C@@H](O)CN([C@H]1CC[C@H](C2=C(C(=O)OC)C(c3ccc(F)c(F)c3Cl)N=C(c3nccs3)N2)CC1)S(C)(=O)=O (single isomer, unassigned) [Compound 245D] | 15 | 12500 | – |
| COC(=O)C1=C(C2CCN(S(=O)(=O)CC34CC(C(=O)O)(C3)C4)CC2)NC(c2nccs2)=NC1c1ccc(F)c(F)c1Cl (stereo not drawn) [Compound 456, 3-(((4-(6-(2-Chloro-3,4-difluorophenyl)-5-(methoxycarbonyl)-2-(thiazol-2-yl)-3,6-dihydropyrimidin-4-yl)piperidin-1-yl)sulfonyl)methyl)bicyclo[1.1.1]pentane-1-carboxylic Acid] | 43 | 19500 | – |
| CCOC(=O)C1=C([C@@H]2CC[C@H](C(=O)O)OC2)NC(c2nccs2)=NC1c1ccc(F)cc1Cl (single isomer, unassigned) [Compound 265E, (cis)-5-(−6-(2-Chloro-4-fluorophenyl)-5-(ethoxycarbonyl)-2-(thiazol-2-yl)-3,6-dihydropyrimidin-4-yl)tetrahydro-2H-pyran-2-carboxylic Acid] | – | 92300 | 978 |
| CCOC(=O)C1=C(C2CCN(S(=O)(=O)c3cnn(CCCCCC(=O)O)c3)CC2)NC(c2nccs2)=NC1c1ccc(F)c(F)c1Cl (stereo not drawn) [Compound 462, 6-(4-((4-(6-(2-Chloro-3,4-difluorophenyl)-5-(ethoxycarbonyl)-2-(thiazol-2-yl)-3,6-dihydropyrimidin-4-yl)piperidin-1-yl)sulfonyl)-1H-pyrazol-1-yl)hexanoic Acid] | 24 | 6600 | – |
| COCCOCCOCCS(=O)(=O)N1CCC(C2=C(C(=O)OC)C(c3ccc(F)cc3Cl)N=C(c3nccs3)N2)CC1 (stereo not drawn) [Compound 459, Methyl 4-(2-chloro-4-fluorophenyl)-6-(1-((2-(2-(2-methoxyethoxy)ethoxy)ethyl)sulfonyl)piperidin-4-yl)-2-(thiazol-2-yl)-1,4-dihydropyrimidine-5-carboxylate] | 41 | 93500 | – |
| COC(=O)C1=C(C23CC(NS(C)(=O)=O)(C2)C3)NC(c2nccs2)=NC1c1ccc(F)c(F)c1Cl (stereo not drawn) [Compound 204A, Methyl 4-(2-chloro-3,4-difluorophenyl)-6-(3-(methyl-sulfonamido)bicyclo[0.1.1.1]pentan-1-yl)-2-(thiazol-2-yl)-1,4-dihydropyrimidine-5-carboxylate] | 7 | 23800 | – |
| CCOC(=O)C1=C(C2CCN(S(=O)(=O)[C@H]3C[C@H](C(=O)O)C3)CC2)NC(c2nccs2)=NC1c1ccc(F)c(F)c1C (single isomer, unassigned) [Compound 343A, (trans)-3-((4-(6-(3,4-difluoro-2-methylphenyl)-5-(ethoxycarbonyl)-2-(thiazol-2-yl)-3,6-dihydropyrimidin-4-yl)piperidin-1-yl)sulfonyl)cyclobutanecarboxylic Acid] | – | 40800 | 89 |
| COC(=O)C1=C(C2CCN(C(=O)C(C)(C)C)C2)NC(c2nccs2)=NC1c1ccc(F)cc1Cl (stereo not drawn) [Compound 68, Methyl 4-(2-chloro-4-fluorophenyl)-6-(1-pivaloylpyrrolidin-3-yl)-2-(thiazol-2-yl)-1,4-dihydropyrimidine-5-carboxylate] | 581 | 72900 | – |
| COC(=O)C1=C(C2CCN(S(=O)(=O)[C@H]3C[C@@H](C(=O)O)C3)CC2)NC(c2nccs2)=NC1c1ccc(F)c(F)c1Cl (relative stereo) [Compound 232D, (cis)-3-((4-(−6-(2-Chloro-3,4-difluorophenyl)-5-(methoxycarbonyl)-2-(thiazol-2-yl)-3,6-dihydropyrimidin-4-yl)piperidin-1-yl)sulfonyl)cyclobutanecarboxylic Acid] | 30 | 39600 | – |
| COC(=O)C1=C(C2CCN(C)C(=O)C2)NC(c2nccs2)=NC1c1cccc(F)c1Cl (single isomer, unassigned) [Compound 4B, Methyl 4-(2-chloro-3-fluorophenyl)-6-(1-methyl-2-oxopiperidin-4-yl)-2-(thiazol-2-yl)-1,4-dihydropyrimidine-5-carboxylate] | 351 | > 10000 | – |
| COC(=O)C1=C([C@H]2CC[C@H](NS(=O)(=O)C3CN(C)C3)CC2)NC(c2nccs2)=NC1c1ccc(F)c(F)c1Cl (single isomer, unassigned) [Compound 251B, (trans)-Methyl 4-(2-chloro-3,4-difluorophenyl)-6-(4-(1-methylazetidine-3-sulfonamido)cyclohexyl)-2-(thiazol-2-yl)-1,4-dihydropyrimidine-5-carboxylate] | 103 | 8700 | – |
| COC(=O)C1=C(C2CCCO2)NC(c2nccs2)=NC1c1ccc(F)cc1Cl (single isomer, unassigned) [Compound 70D, Methyl 4-(2-chloro-4-fluorophenyl)-6-(tetrahydrofuran-2-yl)-2-(thiazol-2-yl)-1,4-dihydropyrimidine-5-carboxylate] | 140 | 22600 | – |
| COC(=O)C1=C([C@H]2C[C@@H](C)CO2)NC(c2nccs2)=NC1c1cccc(F)c1Cl (relative stereo) [Compound 171, (cis)-Methyl 4-(2-chloro-3-fluorophenyl)-6-(4-methyltetrahydrofuran-2-yl)-2-(thiazol-2-yl)-1,4-dihydropyrimidine-5-carboxylate] | 124 | 15500 | – |
| CCOC(=O)C1=C(C2CCN(S(=O)(=O)[C@H]3C[C@@H](C(=O)O)C3)CC2)NC(c2nccs2)=NC1c1ccc(F)c(F)c1C (relative stereo) [Compound 343D, (cis)-3-((4-(6-(3,4-difluoro-2-methylphenyl)-5-(ethoxycarbonyl)-2-(thiazol-2-yl)-3,6-dihydropyrimidin-4-yl)piperidin-1-yl)sulfonyl)cyclobutane-carboxylic Acid] | 53 | 24000 | – |
| COC(=O)C1=C(C2CC(C(=O)O)C2)NC(c2nccs2)=NC1c1ccc(F)cc1Cl (stereo not drawn) [Compound 86, 6-(3-Carboxy-cyclobutyl)-4-(2-chloro-4-fluoro-phenyl)-2-thiazol-2-yl-1,4-dihydro-pyrimidine-5-carboxylic acid methyl ester] | 110 | 21600 | – |
| COC(=O)C1=C(C2CCN(S(=O)(=O)[C@H]3C[C@@H](C(C)(C)O)C3)CC2)NC(c2nccs2)=NC1c1ccc(F)cc1Cl (single isomer, unassigned) [Compound 244D, (cis)-Methyl 4-(2-chloro-4-fluorophenyl)-6-(1-((3-(2-hydroxypropan-2-yl)cyclobutyl)sulfonyl)piperidin-4-yl)-2-(thiazol-2-yl)-1,4-dihydropyrimidine-5-carboxylate] | 107 | 60000 | – |
